Here are results for 14 compounds from ChEMBL document CHEMBL1149776, “Synthesis and biological evaluation of some thiazolyl and thiadiazolyl derivatives of 1H-pyrazole as anti-inflammatory antimicrobial agents” (Eur J Med Chem, 2008).

SMILES strings stand for the structures. In brackets after ≈: the same amount, converted by molar mass.

In data set [1] the test system is Rattus norvegicus. Put plainly: Gastrointestinal toxicity in albino rat assessed as ulcerogenic effect at 30 umol/kg, po for 3 days. It is filed as organism-based. As to conditions: in vivo, 72 h.
The species entered for data set [2] is Rattus norvegicus. The experiment in a line: Antiinflammatory activity in Sprague-Dawley rat cotton pellet-induced granuloma model. It is filed as functional.
The subject of another data set is Escherichia coli. Put plainly: Antimicrobial activity against Escherichia coli ATCC 25922. It is filed as functional.
The test system of a further data set is Candida albicans. Put plainly: Antimicrobial activity against Candida albicans. It is filed as functional.
The subject of another data set is Staphylococcus aureus. Put plainly: Antimicrobial activity against Staphylococcus aureus ATCC 19433. It is filed as functional.
Data set [3] deals with Mus musculus. The experiment in a line: Toxicity in mouse upto 40 mg/kg, po assessed as mortality after 24 hrs. It is filed as organism-based. The arrangement: dose 40 mg/kg, route oral. As to conditions: in vivo.
Data set [4] deals with Mus musculus. Put plainly: Toxicity in parenterally dosed mouse upto 65 mg/kg assessed as mortality upto 7 days. It is filed as organism-based. As to conditions: in vivo, 168 h. Details: dose 65 mg/kg.
Data set [5] deals with Rattus norvegicus. The experiment in a line: Antiinflammatory activity in albino rat assessed as protection against carrageenan-induced paw edema at 10 umol/kg, sc administered 1 hr prior to carrageenan challenge relative to indomethacin. It is filed as functional. Background: The carrageenan paw model is a standard test of acute inflammation.
In data set [6] the target is Prostaglandin G/H synthase 1 (Homo sapiens, UniProt P23219). The experiment in a line: Inhibition of human platelet COX1.
Sequence of Prostaglandin G/H synthase 1 (P23219 whole entry): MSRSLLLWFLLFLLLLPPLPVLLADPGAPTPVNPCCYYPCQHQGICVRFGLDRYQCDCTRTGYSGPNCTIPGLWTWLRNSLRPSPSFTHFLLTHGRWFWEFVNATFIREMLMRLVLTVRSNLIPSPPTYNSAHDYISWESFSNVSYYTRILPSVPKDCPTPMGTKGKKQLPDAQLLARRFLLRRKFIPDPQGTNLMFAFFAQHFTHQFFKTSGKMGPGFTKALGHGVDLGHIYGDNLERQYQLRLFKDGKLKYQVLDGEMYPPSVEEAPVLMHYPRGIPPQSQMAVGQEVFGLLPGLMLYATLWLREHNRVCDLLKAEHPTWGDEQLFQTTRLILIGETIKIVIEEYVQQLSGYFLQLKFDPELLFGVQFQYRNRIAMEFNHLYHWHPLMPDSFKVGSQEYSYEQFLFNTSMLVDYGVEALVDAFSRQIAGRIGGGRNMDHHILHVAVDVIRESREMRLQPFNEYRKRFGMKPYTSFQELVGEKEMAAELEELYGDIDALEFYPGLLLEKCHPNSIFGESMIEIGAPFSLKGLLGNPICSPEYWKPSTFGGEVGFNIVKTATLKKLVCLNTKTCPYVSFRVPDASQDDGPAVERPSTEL

For `COc1ccc2c(c1)c(CC(=O)O)c(C)n2C(=O)c1ccc(Cl)cc1` [INDOMETHACIN], the Activity in the data set with Rattus norvegicus [1] came out at 100%. In the data set listed under Rattus norvegicus [2], this compound gave an ED50 of 9.58 µmol.

A word on the MIC: it is the smallest concentration in the dilution series that meets the test's criterion for growth inhibition. Read a high MIC as a less susceptible organism. As for `CN(C)/C=N/S(=O)(=O)c1ccc(-n2cc(/C=N\N=c3/scc(-c4ccc(Br)cc4)n3-c3ccc(Cl)cc3)c(-c3ccccc3)n2)cc1`, the MIC in the data set with Escherichia coli is 100 µg/mL (≈ 134 µM); against Candida albicans, 50 µg/mL (≈ 67.1 µM); in the data set with Staphylococcus aureus, 100 µg/mL (≈ 134 µM). In addition, the Activity entry is “Non-toxic” in the data set with Mus musculus [3], “Non-toxic” with Mus musculus [4] and 0% in the data set with Rattus norvegicus [1]. Further, the ED50 in the data set listed under Rattus norvegicus [2] was determined as 9.56 µmol.

As for `CC(=O)N(C1=NN(C(C)=O)C(c2cn(-c3ccc(S(=O)(=O)/N=C/N(C)C)cc3)nc2-c2ccccc2)S1)c1ccc(Cl)cc1` (stereo unspecified), the minimum inhibitory concentration (MIC) against Escherichia coli is 50 µg/mL (≈ 76.9 µM); against Candida albicans, 25 µg/mL (≈ 38.5 µM); in the data set on Staphylococcus aureus, greater than 200 µg/mL. Further, the Activity in the data set with Rattus norvegicus [1] came to 10%. In addition, in the data set listed under Rattus norvegicus [2], the ED50 was 13.96 µmol.

On to `CN(C)/C=N/S(=O)(=O)c1ccc(-n2cc(/C=N\N=c3/scc(-c4ccc(Br)cc4)n3-c3ccccc3)c(-c3ccccc3)n2)cc1`, for which the figures for the MIC in the data set with Escherichia coli, against Candida albicans and against Staphylococcus aureus were 25 µg/mL (≈ 35.2 µM), greater than 200 µg/mL and 25 µg/mL (≈ 35.2 µM), respectively. Besides, the Activity in the data set with Rattus norvegicus [1] is reported as 0%. In the data set filed under Rattus norvegicus [2], this compound came in with an ED50 of 12.96 µmol.

In the case of `CN(C)/C=N/S(=O)(=O)c1ccc(-n2cc(-c3nnc(Nc4ccc(Cl)cc4)s3)c(-c3ccccc3)n2)cc1`, the minimum inhibitory concentration (MIC) was 100 µg/mL (≈ 177 µM) against Escherichia coli, greater than 200 µg/mL against Candida albicans and 100 µg/mL (≈ 177 µM) in the data set on Staphylococcus aureus. In the data set on Rattus norvegicus [1], the Activity is 10%. The ED50 in the data set listed under Rattus norvegicus [2] is 11.88 µmol.

Regarding `CC(=O)N(C1=NN(C(C)=O)C(c2cn(-c3ccc(S(=O)(=O)/N=C/N(C)C)cc3)nc2-c2ccccc2)S1)c1ccccc1` (stereo unspecified), the results for the minimum inhibitory concentration (MIC) against Escherichia coli, against Candida albicans and with Staphylococcus aureus were 50 µg/mL (≈ 81.2 µM), 50 µg/mL (≈ 81.2 µM) and greater than 200 µg/mL, respectively. The Activity with Rattus norvegicus [1] was determined as 20%. In the data set listed under Rattus norvegicus [2], the ED50 was found to be 12.54 µmol.

Consider `Cc1ccc(-n2c(-c3ccc(Br)cc3)cs/c2=N\N=C/c2cn(-c3ccc(S(=O)(=O)/N=C/N(C)C)cc3)nc2-c2ccccc2)cc1`, for which the Activity with Rattus norvegicus [5] stood at 94.46%; with Rattus norvegicus [1], 0%. In addition, the MIC in the data set with Escherichia coli turned out to be 50 µg/mL (≈ 69 µM); against Candida albicans, 100 µg/mL (≈ 138 µM); in the data set on Staphylococcus aureus, 50 µg/mL (≈ 69 µM). In [6], this compound came in with an IC50 of 96.25 µmol. The same compound displayed an ED50 in the data set filed under Rattus norvegicus [2] of 11.06 µmol.

For the compound `CC1(C)S[C@@H]2[C@H](NC(=O)[C@H](N)c3ccccc3)C(=O)N2[C@H]1C(=O)O` [AMPICILLIN], the MIC turned out to be 25 µg/mL (≈ 71.5 µM) with Escherichia coli and 12.5 µg/mL (≈ 35.8 µM) against Staphylococcus aureus.

`CN(C)/C=N/S(=O)(=O)c1ccc(-n2cc(/C=N\N=C3/SCC(=O)N3c3ccccc3)c(-c3ccccc3)n2)cc1`: the minimal inhibitory concentration (MIC) against Escherichia coli came to 50 µg/mL (≈ 87.5 µM); against Candida albicans, 100 µg/mL (≈ 175 µM); against Staphylococcus aureus, 25 µg/mL (≈ 43.7 µM). In addition, the Activity with Rattus norvegicus [1] worked out at 10%. The compound also returned an ED50 in the data set filed under Rattus norvegicus [2] of 13.36 µmol.

Take `Cc1ccc(Nc2nnc(-c3cn(-c4ccc(S(=O)(=O)/N=C/N(C)C)cc4)nc3-c3ccccc3)s2)cc1`: the MIC was 100 µg/mL (≈ 184 µM) in the data set with Escherichia coli, greater than 200 µg/mL against Candida albicans and 25 µg/mL (≈ 46 µM) against Staphylococcus aureus. Moreover, the Activity in the data set with Rattus norvegicus [1] was 10%. The compound further registered an ED50 in the data set filed under Rattus norvegicus [2] of 12.46 µmol.

For `Cc1ccc(N2C(=O)CS/C2=N\N=C/c2cn(-c3ccc(S(=O)(=O)/N=C/N(C)C)cc3)nc2-c2ccccc2)cc1`, the Activity with Rattus norvegicus [5] is on record as 98.65%; in the data set on Mus musculus [3] it was “Non-toxic”; in the data set on Mus musculus [4] it was “Non-toxic”; with Rattus norvegicus [1], 20%. Besides, the minimum inhibitory concentration (MIC) worked out at 25 µg/mL (≈ 42.7 µM) in the data set on Escherichia coli, 100 µg/mL (≈ 171 µM) in the data set on Candida albicans and 100 µg/mL (≈ 171 µM) against Staphylococcus aureus. In addition, the IC50 in data set [6] was 87.12 µmol. The same compound had an ED50 in the data set filed under Rattus norvegicus [2] of 9.34 µmol.

On to `CC(=O)N(C1=NN(C(C)=O)C(c2cn(-c3ccc(S(=O)(=O)/N=C/N(C)C)cc3)nc2-c2ccccc2)S1)c1ccc(C)cc1` (stereo unspecified), for which the minimal inhibitory concentration (MIC) amounted to 50 µg/mL (≈ 79.4 µM) with Escherichia coli, 25 µg/mL (≈ 39.7 µM) against Candida albicans and 100 µg/mL (≈ 159 µM) in the data set on Staphylococcus aureus. Further, in the data set on Rattus norvegicus [1], the Activity was determined as 10%. Also, in the data set listed under Rattus norvegicus [2], the ED50 came out at 14.86 µmol.

As to `CN(C)/C=N/S(=O)(=O)c1ccc(-n2cc(-c3nnc(Nc4ccccc4)s3)c(-c3ccccc3)n2)cc1`, the MIC was 100 µg/mL (≈ 189 µM) against Escherichia coli, 100 µg/mL (≈ 189 µM) with Candida albicans and greater than 200 µg/mL against Staphylococcus aureus. The Activity with Rattus norvegicus [1] worked out at 0%. Also, the ED50 in the data set filed under Rattus norvegicus [2] came out at 11.38 µmol.

Consider `CN(C)/C=N/S(=O)(=O)c1ccc(-n2cc(/C=N\N=C3/SCC(=O)N3c3ccc(Cl)cc3)c(-c3ccccc3)n2)cc1`, for which the Activity in the data set with Rattus norvegicus [5] is given as 104.16%; with Mus musculus [3], “Non-toxic”; in the data set on Mus musculus [4], “Non-toxic”; in the data set with Rattus norvegicus [1], 10%. Also, the results for the minimal inhibitory concentration (MIC) with Escherichia coli, with Candida albicans and in the data set on Staphylococcus aureus were 100 µg/mL (≈ 165 µM), greater than 200 µg/mL and 25 µg/mL (≈ 41.2 µM), respectively. In data set [6], this compound had an IC50 greater than 100 µmol. Besides, in the data set listed under Rattus norvegicus [2], the ED50 worked out at 9.12 µmol.
